Values of other authors as cited in patent US20250151766A1, “SWEETENED COMPOSITION AND PREPARATION METHOD AND USE THEREOF” (GUILIN LAYN NATURAL INGREDIENTS CORP., priority 2022, published 2025).

Details: general statement in the description

Compound: O=C(CO)[C@@H](O)[C@H](O)[C@H](O)CO [fructose]
- sweetness: 1.5 ×
